Measured values: publication PMC8819291, “Adaptively evolved human oral actinomyces‐sourced defensins show therapeutic potential” (EMBO Molecular Medicine, 2021)
Marks after values point to notes of the source that are not given here. Where a SMILES comes first, the peptide text is derived from it. Bridges are numbered along the chain shown (N, C = ends).

Columns and labels:
[1] = tested on: Bacillus megaterium CGMCC 1.0459; assay: Inhibition-zone assay (lethal concentration); type: cell-based; conditions: LB, 37°C
Description: (§1) Bacterial media used here included: Luria‐Bertani (LB) medium, THY medium (30 g Todd Hewitt broth and 5 g Yeast extract per liter), and tryptic soy broth (TSB) (Oxoid, Basingstoke, UK); Broth medium and brain–heart infusion (BHI) medium (Beijing Landbridge technology Limited by Share Ltd., Beijing, China); Potato dextrose (PD) medium (self‐prepared).
(§2) In brief, an overnight bacterial culture from a single colony was inoculated into fresh medium and grew to late log‐phase. A 10‐μl aliquot of each culture was diluted in 6‐ml pre‐heated medium containing 0.8% agar. The mixture was spread on a 9‐cm Petri dish, giving a depth of 1 mm. After settling, 3‐mm wells were punched in the plate and then 2‐μl peptide samples of different concentrations were added to each well. The agar plates were incubated overnight at indicated temperatures (Table EV4). A lethal concentration (C L ) was calculated from a plot of d^2 against log n, where d is the diameter (in cm) and n is the amount of sample applied in the well (in nmol). The plot is linear, and thus C L can be calculated from the slope (k) and the intercept (m) of this plot.

[2] = tested on: Bacillus subtilis CGMCC 1.2428; assay: Inhibition-zone assay (lethal concentration); type: cell-based; conditions: LB, 37°C
Description: as §1, §2

[3] = tested on: Enterococcus faecalis V583 (ATCC 700802); assay: Inhibition-zone assay (lethal concentration); type: cell-based; conditions: BHI, 37°C
Description: as §1, §2

[4] = tested on: Lysinibacillus fusiformis; assay: Inhibition-zone assay (lethal concentration); type: cell-based; conditions: Broth Medium, 37°C
Description: as §1, §2

[5] = tested on: Methicillin‐resistant Staphylococcus aureus P1374; assay: Inhibition-zone assay (lethal concentration); type: cell-based; conditions: Broth Medium, 37°C
Description: as §1, §2

[6] = tested on: Methicillin‐resistant Staphylococcus aureus P1386; assay: Inhibition-zone assay (lethal concentration); type: cell-based; conditions: Broth Medium, 37°C
Description: as §1, §2

[7] = tested on: Staphylococcus aureus CGMCC 1.89; assay: Inhibition-zone assay (lethal concentration); type: cell-based; conditions: Broth Medium, 37°C
Description: as §1, §2

[8] = tested on: Staphylococcus aureus J685; assay: Inhibition-zone assay (lethal concentration); type: cell-based; conditions: Broth Medium, 37°C
Description: as §1, §2

[9] = tested on: Staphylococcus aureus J698; assay: Inhibition-zone assay (lethal concentration); type: cell-based; conditions: Broth Medium, 37°C
Description: as §1, §2

[10] = tested on: Staphylococcus aureus J700; assay: Inhibition-zone assay (lethal concentration); type: cell-based; conditions: Broth Medium, 37°C
Description: as §1, §2

[11] = tested on: Staphylococcus aureus J706; assay: Inhibition-zone assay (lethal concentration); type: cell-based; conditions: Broth Medium, 37°C
Description: as §1, §2

[12] = tested on: Staphylococcus aureus J708; assay: Inhibition-zone assay (lethal concentration); type: cell-based; conditions: Broth Medium, 37°C
Description: as §1, §2

[13] = tested on: Staphylococcus aureus J710; assay: Inhibition-zone assay (lethal concentration); type: cell-based; conditions: Broth Medium, 37°C
Description: as §1, §2

[14] = tested on: Streptococcus mutans CGMCC 1.2499 (ATCC 25175); assay: Inhibition-zone assay (lethal concentration); type: cell-based; conditions: Broth Medium, 37°C
Description: as §1, §2

[15] = tested on: Streptococcus pneumoniae D39; assay: Inhibition-zone assay (lethal concentration); type: cell-based; conditions: THY, 5% CO2, 37°C
Description: as §1, §2

[16] = tested on: Streptococcus pneumoniae R6; assay: Inhibition-zone assay (lethal concentration); type: cell-based; conditions: THY, 5% CO2, 37°C
Description: as §1, §2

[17] = tested on: Streptococcus pneumoniae ST556 (StrR); assay: Inhibition-zone assay (lethal concentration); type: cell-based; conditions: streptomycin‐resistant strain; THY, 5% CO2, 37°C
Description: as §1, §2

[18] = tested on: Streptococcus pneumoniae ST556; assay: Inhibition-zone assay (lethal concentration); type: cell-based; conditions: THY, 5% CO2, 37°C
Description: as §1, §2

[19] = tested on: Streptococcus pneumoniae TIGR4; assay: Inhibition-zone assay (lethal concentration); type: cell-based; conditions: THY, 5% CO2, 37°C
Description: as §1, §2

[20] = tested on: Streptococcus salivarius CGMCC 1.2498 (ATCC 7073); assay: Inhibition-zone assay (lethal concentration); type: cell-based; conditions: Broth Medium, 37°C
Description: as §1, §2

[21] = tested on: Streptococcus sanguinis CGMCC 1.2497 (ATCC 49295); assay: Inhibition-zone assay (lethal concentration); type: cell-based; conditions: Broth Medium, 37°C
Description: as §1, §2

[22] = tested on: Streptomyces griseus NBRC 13350; assay: Inhibition-zone assay (lethal concentration); type: cell-based; conditions: PD, 28°C
Description: as §1, §2

[23] = tested on: Streptomyces scabiei CGMCC 4.1765 (ATCC 49173); assay: Inhibition-zone assay (lethal concentration); type: cell-based; conditions: Tryptone Soy Broth (TSB), 30°C
Description: as §1, §2

[24] = tested on: penicillin‐resistant Staphylococcus aureus P1383; assay: Inhibition-zone assay (lethal concentration); type: cell-based; conditions: Broth Medium, 37°C
Description: as §1, §2

[25] = tested on: penicillin‐resistant Staphylococcus epidermidis P1389; assay: Inhibition-zone assay (lethal concentration); type: cell-based; conditions: Broth Medium, 37°C
Description: as §1, §2

[26] = tested on: penicillin‐sensitive Staphylococcus epidermidis P1111; assay: Inhibition-zone assay (lethal concentration); type: cell-based; conditions: Broth Medium, 37°C
Description: as §1, §2

[27] = SPR binding of UMP to immobilized AMSIN (Biacore T100); conditions: read-out: Binding affinity of AMSIN to UMP (K D); AMSIN immobilized on CM5, UMP 100–3.125 μM in PBS-T pH 7.5, 25°C; 1:1 Langmuir model
Procedure: Surface plasmon resonance (SPR) analysis was performed on a Biacore T100 instrument with a CM‐5 sensor chip (GE Healthcare Life Sciences, USA) at 25°C. An amide coupling chemistry strategy was used to immobilize AMSIN on the chip surface. […] Non‐reacted carboxylic groups on the sensor chip surface were blocked by ethanolamine‐HCl (1 M, pH 8.5) for 420 s at a flow rate of 10 μl/min. The final immobilization level was 1,778 RUs. For detecting binding, the analyte UMP was serially diluted twofold with the running buffer PBS‐T (PBS buffer containing 0.05% Tween 20, pH 7.5) at final concentrations of 100–3.125 μM. Then, they were used to flow over the chip surface at a flow rate of 30 μl/min for 60 s. Dissociation was monitored for 120 s by injecting the running buffer suddenly after samples at a flow rate of 30 μl/min for complete removal of specifically and non‐specifically bound biological material from the surface. Responses were measured in RUs as the difference between active and reference channels. The binding curve was fitted with the software BIAevaluation v2.0.1 using 1:1 Langmuir binding model.

HL‐60 = assay: Cytotoxicity assay (CCK-8); type: cell-based, human; conditions: 72 h
Procedure: Cells were cultured at 37°C in 5% CO2: 95% air incubator in Minimum Essential Medium (MEM) supplemented with 10% (v/v) fetal bovine serum (FBS). Cells were seeded at a density of 7 × 10^3 cells per well in 96‐well plates and incubated for 24 h. Media were then replaced with 200 μl of media containing various concentrations of peptides. The cells were incubated for 72 h and cytotoxicity was assessed with CCK‐8 Kits (Dojindo Molecular Technologies, Tokyo, Japan). Absorbance was detected at 450 nm with the TECAN Infinite M200 microplate reader (Tecan, Durham, USA).

CC[C@H](C)[C@@H]1NC(=O)[C@H](CCCCN)NC(=O)CNC(=O)[C@H](CCCNC(=N)N)NC(=O)[C@@H]2CSSC[C@H](NC(=O)CNC(=O)[C@H](Cc3ccccc3)NC(=O)CN)C(=O)N3CCC[C@H]3C(=O)N[C@@H](Cc3c[nH]c4ccccc34)C(=O)N[C@@H](CC(N)=O)C(=O)N[C@@H](C)C(=O)N[C@@H](Cc3ccc(O)cc3)C(=O)N[C@@H](CCC(=O)O)C(=O)N[C@H]3CSSC[C@H](NC(=O)[C@H]([C@@H](C)O)NC(=O)[C@H](CCC(N)=O)NC(=O)[C@H](CCCNC(=N)N)NC1=O)C(=O)N[C@@H](Cc1c[nH]cn1)C(=O)N[C@H](C(=O)N[C@@H](Cc1ccc(O)cc1)C(=O)O)CSSC[C@H](NC(=O)[C@H](Cc1c[nH]cn1)NC(=O)[C@H](CCCNC(=N)N)NC(=O)[C@H](CC(=O)O)NC3=O)C(=O)N[C@@H](C(C)C)C(=O)N[C@@H](CO)C(=O)N[C@@H](CCCCN)C(=O)NCC(=O)N[C@@H](Cc1ccc(O)cc1)C(=O)N[C@@H]([C@@H](C)O)C(=O)NCC(=O)NCC(=O)N[C@@H](CC(N)=O)C(=O)N2 [AMSIN] (H-GFGCPWNAYECDRHCVSKGYTGGNCRGKIRQTCHCY-OH; disulfide 4-25, 11-33, 15-35; N-terminus and C-terminus assumed)
Lethal concentration (C L) ([1]; AMSIN alone): 0.11 µM
Lethal concentration (C L) ([1]; In combination with HNP1&2): 0.038 ^a µM
Lethal concentration (C L) ([1]; In combination with hLZc): 0.045 ^b µM
Lethal concentration (C L) [2]: 1.00 µM
Lethal concentration (C L) [3]: 4.65 µM
Lethal concentration (C L) [4]: 0.27 µM
Lethal concentration (C L) [5]: 0.62 µM
Lethal concentration (C L) [6]: 0.74 µM
Lethal concentration (C L) [7]: 5.20 µM
Lethal concentration (C L) [8]: 10.40 µM
Lethal concentration (C L) [9]: 5.20 µM
Lethal concentration (C L) [10]: 5.20 µM
Lethal concentration (C L) [11]: 5.20 µM
Lethal concentration (C L) [12]: 1.14 µM
Lethal concentration (C L) [13]: 2.60 µM
Lethal concentration (C L) ([14]; AMSIN alone): 1.01 µM
Lethal concentration (C L) ([14]; In combination with HNP1&2): 0.38 ^a µM
Lethal concentration (C L) ([14]; In combination with hLZc): 0.56 ^b µM
Lethal concentration (C L) [15]: 0.09 µM
Lethal concentration (C L) [16]: 0.14 µM
Lethal concentration (C L) [17]: < 0.14 µM
Lethal concentration (C L) [18]: 0.14 µM
Lethal concentration (C L) [19]: 0.14 µM
Lethal concentration (C L) [20]: 0.49 µM
Lethal concentration (C L) [21]: 1.41 µM
Lethal concentration (C L) [22]: 2.89 µM
Lethal concentration (C L) [23]: 2.01 µM
Lethal concentration (C L) [24]: 4.28 µM
Lethal concentration (C L) [25]: 1.14 µM
Lethal concentration (C L) [26]: 5.20 µM
Kd [27]: 24 µM
Cellular variability of HL-60 (%) (HL‐60; 25 μg/mL, replicate 1): 97%
Cellular variability of HL-60 (%) (HL‐60; 25 μg/mL, replicate 2): 101%
Cellular variability of HL-60 (%) (HL‐60; 25 μg/mL, replicate 3): 108%
Cellular variability of HL-60 (%) (HL‐60; 50 μg/mL, replicate 1): 97%
Cellular variability of HL-60 (%) (HL‐60; 50 μg/mL, replicate 2): 100%
Cellular variability of HL-60 (%) (HL‐60; 50 μg/mL, replicate 3): 103%
Cellular variability of HL-60 (%) (HL‐60; 100 μg/mL, replicate 1): 97%
Cellular variability of HL-60 (%) (HL‐60; 100 μg/mL, replicate 2): 102%
Cellular variability of HL-60 (%) (HL‐60; 100 μg/mL, replicate 3): 106%
